Laboratory results as given in patent publication US12172995B2, “Substituted indole and indazole compounds” (BRISTOL-MYERS SQUIBB COMPANY, priority 2018, dated 2024).

Legend:
Assay type in all cases: cell-based
[1] = target: T1, human TLR8 (Homo sapiens, UniProt Q9NR97); test: TLR8 inhibition reporter assay (HEK-Blue SEAP); conditions: HEK-Blue cells overexpressing human TLR8, stimulated with R848 15.9 μM, 22 hour incubation
T1 construct: host or cells: HEK-Blue cells
T1 sequence (Q9NR97 27-1041): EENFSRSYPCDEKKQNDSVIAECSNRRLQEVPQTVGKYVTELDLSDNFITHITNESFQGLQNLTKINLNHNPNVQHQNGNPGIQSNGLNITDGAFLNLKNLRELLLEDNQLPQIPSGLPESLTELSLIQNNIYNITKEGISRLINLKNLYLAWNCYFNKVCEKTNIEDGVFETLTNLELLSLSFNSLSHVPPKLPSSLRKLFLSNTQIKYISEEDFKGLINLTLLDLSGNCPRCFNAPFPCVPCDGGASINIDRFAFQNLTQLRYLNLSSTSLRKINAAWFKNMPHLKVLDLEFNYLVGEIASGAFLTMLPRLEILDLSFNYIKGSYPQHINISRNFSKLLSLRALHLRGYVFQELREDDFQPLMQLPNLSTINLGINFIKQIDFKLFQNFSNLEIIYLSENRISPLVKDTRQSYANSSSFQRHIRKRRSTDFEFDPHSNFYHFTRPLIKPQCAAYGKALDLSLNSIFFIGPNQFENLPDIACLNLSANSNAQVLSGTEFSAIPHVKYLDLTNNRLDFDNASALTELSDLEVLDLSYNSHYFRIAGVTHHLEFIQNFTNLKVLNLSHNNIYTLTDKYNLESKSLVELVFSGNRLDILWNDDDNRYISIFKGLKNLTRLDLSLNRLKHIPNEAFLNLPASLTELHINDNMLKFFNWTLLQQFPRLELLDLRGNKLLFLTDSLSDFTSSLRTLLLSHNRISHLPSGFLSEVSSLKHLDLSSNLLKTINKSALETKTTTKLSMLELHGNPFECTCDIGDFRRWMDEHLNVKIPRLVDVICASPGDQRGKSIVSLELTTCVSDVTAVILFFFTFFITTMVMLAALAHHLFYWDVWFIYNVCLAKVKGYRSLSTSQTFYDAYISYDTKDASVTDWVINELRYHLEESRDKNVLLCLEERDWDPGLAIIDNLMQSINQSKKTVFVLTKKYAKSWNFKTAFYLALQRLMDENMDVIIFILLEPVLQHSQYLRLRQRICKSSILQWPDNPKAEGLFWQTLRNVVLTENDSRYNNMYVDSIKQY
Method: (§1) TLR7/8/9 Inhibition Reporter Assays
(§2) HEK-Blue™-cells (Invivogen) overexpressing human TLR7, TLR8 or TLR9 receptors were used for screening inhibitors of these receptors using an inducible SEAP (secreted embryonic alkaline phosphatase) reporter gene under the control of the IFN-β minimal promoter fused to five NF-κB and AP-1-binding sites. Briefly, cells are seeded into Greiner 384 well plates (15000 cells per well for TLR7, 20,000 for TLR8 and 25,000 for TLR9) and then treated with test compounds in DMSO to yield a final dose response concentration range of 0.05 nM to 50 μM. After a 30 minute compound pre-treatment at room temperature, the cells are then stimulated with a TLR7 ligand (gardiquimod at a final concentration of 7.5 μM), TLR8 ligand (R848 at a final concentration of 15.9 μM) or TLR9 ligand (ODN2006 at a final concentration of 5 nM) to activate NF-κB and AP-1 which induce the production of SEAP. After a 22 hour incubation at 37° C., 5% CO2, SEAP levels are determined with the addition of HEK-Blue™ Detection reagent (Invivogen), a cell culture medium that allows for detection of SEAP, according to manufacturer's specifications. The percent inhibition is determined as the % reduction in the HEK-Blue signal present in wells treated with agonist plus DMSO alone compared to wells treated with a known inhibitor.

[2] = target: T2, human TLR7 (Homo sapiens, UniProt Q9NYK1); test: TLR7 inhibition reporter assay (HEK-Blue SEAP); conditions: HEK-Blue cells overexpressing human TLR7, stimulated with gardiquimod 7.5 μM, 22 hour incubation
T2 construct: host or cells: HEK-Blue cells
T2 sequence (Q9NYK1 27-1049): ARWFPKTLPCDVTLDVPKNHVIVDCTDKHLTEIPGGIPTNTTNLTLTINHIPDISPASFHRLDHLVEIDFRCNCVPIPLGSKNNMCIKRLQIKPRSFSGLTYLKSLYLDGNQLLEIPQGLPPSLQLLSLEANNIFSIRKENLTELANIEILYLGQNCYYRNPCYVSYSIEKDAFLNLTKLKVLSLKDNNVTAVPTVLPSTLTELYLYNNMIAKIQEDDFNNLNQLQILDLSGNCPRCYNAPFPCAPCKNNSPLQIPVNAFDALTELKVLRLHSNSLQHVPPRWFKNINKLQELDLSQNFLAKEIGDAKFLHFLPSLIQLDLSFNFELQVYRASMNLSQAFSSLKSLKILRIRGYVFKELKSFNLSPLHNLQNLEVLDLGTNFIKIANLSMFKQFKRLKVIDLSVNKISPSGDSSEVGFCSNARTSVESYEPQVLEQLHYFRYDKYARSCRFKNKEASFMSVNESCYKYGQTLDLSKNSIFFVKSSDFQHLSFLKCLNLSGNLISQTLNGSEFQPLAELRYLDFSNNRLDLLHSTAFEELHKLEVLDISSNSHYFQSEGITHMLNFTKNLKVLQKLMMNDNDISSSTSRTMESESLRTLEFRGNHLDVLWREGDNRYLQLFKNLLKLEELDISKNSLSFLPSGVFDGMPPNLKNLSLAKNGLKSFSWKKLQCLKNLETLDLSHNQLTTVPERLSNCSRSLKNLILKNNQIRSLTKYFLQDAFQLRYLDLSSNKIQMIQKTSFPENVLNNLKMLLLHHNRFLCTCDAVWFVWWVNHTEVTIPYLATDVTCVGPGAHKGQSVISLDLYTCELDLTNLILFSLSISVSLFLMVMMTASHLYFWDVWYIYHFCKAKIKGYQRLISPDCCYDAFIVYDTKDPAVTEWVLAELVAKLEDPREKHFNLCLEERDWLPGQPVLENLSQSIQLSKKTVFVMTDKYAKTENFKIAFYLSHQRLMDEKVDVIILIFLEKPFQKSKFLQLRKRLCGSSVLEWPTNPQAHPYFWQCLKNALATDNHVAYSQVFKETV
Method: as §1, §2

[3] = target: T3, human TLR9 (Homo sapiens, UniProt Q9NR96); test: TLR9 inhibition reporter assay (HEK-Blue SEAP); conditions: HEK-Blue cells overexpressing human TLR9, stimulated with ODN2006 5 nM, 22 hour incubation
T3 construct: host or cells: HEK-Blue cells
T3 sequence (Q9NR96 26-1032): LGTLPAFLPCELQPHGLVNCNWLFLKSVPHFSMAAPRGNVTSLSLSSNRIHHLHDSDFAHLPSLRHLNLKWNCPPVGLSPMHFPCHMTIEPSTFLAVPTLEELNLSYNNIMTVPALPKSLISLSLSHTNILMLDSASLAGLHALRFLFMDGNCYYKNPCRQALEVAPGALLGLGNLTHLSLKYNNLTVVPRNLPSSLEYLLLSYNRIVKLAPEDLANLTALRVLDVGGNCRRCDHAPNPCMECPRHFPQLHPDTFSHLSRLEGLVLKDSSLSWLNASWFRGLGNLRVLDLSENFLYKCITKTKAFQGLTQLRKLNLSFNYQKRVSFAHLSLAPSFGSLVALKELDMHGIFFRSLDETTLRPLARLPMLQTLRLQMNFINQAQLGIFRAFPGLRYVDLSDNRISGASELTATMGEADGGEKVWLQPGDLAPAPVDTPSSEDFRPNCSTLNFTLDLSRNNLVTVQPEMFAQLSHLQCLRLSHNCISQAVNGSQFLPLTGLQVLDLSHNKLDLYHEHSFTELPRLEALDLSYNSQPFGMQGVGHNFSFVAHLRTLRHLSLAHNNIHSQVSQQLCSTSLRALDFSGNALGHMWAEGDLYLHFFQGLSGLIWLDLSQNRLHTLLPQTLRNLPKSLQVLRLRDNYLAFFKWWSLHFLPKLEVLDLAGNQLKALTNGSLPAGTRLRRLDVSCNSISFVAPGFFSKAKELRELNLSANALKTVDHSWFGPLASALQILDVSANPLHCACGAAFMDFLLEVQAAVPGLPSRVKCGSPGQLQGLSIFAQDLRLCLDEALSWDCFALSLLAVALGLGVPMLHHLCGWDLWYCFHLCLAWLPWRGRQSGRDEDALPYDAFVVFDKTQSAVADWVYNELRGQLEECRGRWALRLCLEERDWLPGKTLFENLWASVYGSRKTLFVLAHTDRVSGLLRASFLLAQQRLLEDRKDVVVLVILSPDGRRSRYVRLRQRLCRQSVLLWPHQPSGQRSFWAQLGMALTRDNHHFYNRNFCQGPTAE
Method: as §1, §2

SMILES | IC50 [1] | IC50 [2] | IC50 [3]
Cc1cc2c(C3CC(N(C)C)C3)n[nH]c2cc1-c1cc(C)c2ncnn2c1 (single isomer, unassigned) [Example 7, N,N-dimethyl-3-(5-methyl-6-(8-methyl-[1,2,4]triazolo[1,5-a]pyridin-6-yl)-1H-indazol-3-yl)cyclobutan-1-amine] | 0.0013 µM | 0.0216 µM | 4.48 µM
Cc1cc(-c2ccc3c(C4CCC(N(C)C)CC4)c[nH]c3c2)cn2ncnc12 (single isomer, unassigned) [Example 14, N,N-dimethyl-4-(6-(8-methyl-[1,2,4]triazolo[1,5-a]pyridin-6-yl)-1H-indol-3-yl)cyclohexan-1-amine] | 0.115 µM | 0.0806 µM | 3.43 µM
Cc1cc(-c2ccc3c(C4CCC(N(C)C)CC4)c[nH]c3c2)cn2ncnc12 (single isomer, unassigned) [Example 15, N,N-dimethyl-4-(6-(8-methyl-[1,2,4]triazolo[1,5-a]pyridin-6-yl)-1H-indol-3-yl) cyclohexan-1-amine] | 0.0259 µM | 0.0294 µM | 1.13 µM
Cc1cc2c(C3CCC(NCC(=O)N(C)C)CC3)n[nH]c2cc1-c1cc(C)c2ncnn2c1 (single isomer, unassigned) [Example 28, N,N-dimethyl-2-((4-(5-methyl-6-(8-methyl-[1,2,4]triazolo[1,5-a]pyridin-6-yl)-1H-indazol-3-yl)cyclohexyl)amino)acetamide] | 0.0004 µM | 0.0124 µM | 4.41 µM
Cc1cc2c(C3CCC(NCC(=O)N(C)C)CC3)n[nH]c2cc1-c1cc(C)c2ncnn2c1 (single isomer, unassigned) [Example 29, N,N-dimethyl-2-((4-(5-methyl-6-(8-methyl-[1,2,4]triazolo[1,5-a]pyridin-6-yl)-1H-indazol-3-yl)cyclohexyl)amino)acetamide] | 0.0009 µM | 0.039 µM | 6.34 µM
Cc1cc2c(C3CCC(N(C)C4COC4)CC3)n[nH]c2cc1-c1cc(C)c2ncnn2c1 (single isomer, unassigned) [Example 32, N-methyl-N-(4-(5-methyl-6-(8-methyl-[1,2,4]triazolo[1,5-a]pyridin-6-yl)-1H-indazol-3-yl)cyclohexyl)oxetan-3-amine] | 0.0003 µM | 0.0183 µM | 4.44 µM
Cc1cc2c(C3CCC(N(C)C4COC4)CC3)n[nH]c2cc1-c1cc(C)c2ncnn2c1 (single isomer, unassigned) [Example 33, N-methyl-N-(4-(5-methyl-6-(8-methyl-[1,2,4]triazolo[1,5-a]pyridin-6-yl)-1H-indazol-3-yl)cyclohexyl)oxetan-3-amine] | 0.003 µM | 0.0967 µM | 9.01 µM
Cc1cc2c(C3CCC(NC4COC4)CC3)n[nH]c2cc1-c1cc(C)c2ncnn2c1 (single isomer, unassigned) [Example 34, N-(4-(5-methyl-6-(8-methyl-[1,2,4]triazolo[1,5-a]pyridin-6-yl)-1H-indazol-3-yl)cyclohexyl)oxetan-3-amine] | 0.0002 µM | 0.0081 µM | 3.95 µM
Cc1cc2c(C3CCC(NC4COC4)CC3)n[nH]c2cc1-c1cc(C)c2ncnn2c1 (single isomer, unassigned) [Example 35, N-(4-(5-methyl-6-(8-methyl-[1,2,4]triazolo[1,5-a]pyridin-6-yl)-1H-indazol-3-yl)cyclohexyl)oxetan-3-amine] | 0.0008 µM | 0.0297 µM | 3.1 µM
Cc1cc2c(C3CCC(NC(C)C)CC3)n[nH]c2cc1-c1cc(C)c2ncnn2c1 (single isomer, unassigned) [Example 38, N-isopropyl-4-(5-methyl-6-(8-methyl-[1,2,4]triazolo[1,5-a]pyridin-6-yl)-1H-indazol-3-yl)cyclohexan-1-amine] | 0.0001 µM | 0.006 µM | ≥ 50 µM
Cc1cc2c(C3CCC(NC(C)C)CC3)n[nH]c2cc1-c1cc(C)c2ncnn2c1 (single isomer, unassigned) [Example 39, N-isopropyl-4-(5-methyl-6-(8-methyl-[1,2,4]triazolo[1,5-a]pyridin-6-yl)-1H-indazol-3-yl) cyclohexan-1-amine] | 0.0009 µM | 0.0226 µM | 4.12 µM
